According to patent publication US20160362416A1, “ANTIVIRAL COMPOUNDS” (Gilead Sciences, Inc., priority 2012, published 2016):

Legend:
[1] = test system: stable HCV 1b RLuc replicon cells (genotype 1b Con1 replicon); test: HCV genotype 1b RLuc replicon reporter assay; assay type: cell-based; conditions: Hepatitis C virus; stable genotype 1b Con1 RLuc replicon cells, 72 hours
Procedure: (§1) Evaluation of cell-based anti-HCV activity: Antiviral potency (EC50) was determined using a Renilla luciferase (RLuc)-based HCV replicon reporter assay. To perform the assay for genotype 1 and 2a JFH-1, stable HCV 1a RLuc replicon cells (harboring a dicistronic genotype 1a H77 replicon that encodes a RLuc reporter), stable HCV lb RLuc replicon cells (harboring a dicistronic genotype 1b Conl replicon that encodes a RLuc reporter), or stable HCV 2a JFH-1 Rluc replicon cells (harboring a dicistronic genotype 2a JFH-1 replicon that encodes a RLuc reporter; with L31 present in NS5A) were dispensed into 384-well plates for EC50 assays. To perform the assay for genotype 2a (with M31 present in NS5A) or 2b, NS5A chimeric genotype 2a JFH-1 replicons that encodes a RLuc-Neo reporter and either genotype 2a J6 strain NS5A gene or genotype 2b MD2b-1 strain NS5A gene (both with M31 present) respectively, were either transiently transfected (t) into Huh-Lunet cells or were established as stably replicating replicon cells (s) is provided. Either cells were dispensed into 384-well plates for EC50 assays. To perform the assay for genotype 3 and 4, NS5A chimeric genotype 1b Conl replicons that encodes a Pi-RLuc reporter and either genotype 3a S52 strain NS5A gene or genotype 4a ED43 strain NS5A gene respectively, were transiently transfected (t) into Huh-Lunet cells, which were subsequently dispensed into 384-well plates. Compounds were dissolved in DMSO at a concentration of 10 mM and diluted in DMSO either manually or using an automated pipeting instrument. Serially 3-fold diluted compounds were either manually mixed with cell culture media and added to the seeded cells or directly added to the cells using an automated instrument. DMSO was used as a negative (solvent; no inhibition) control, and the protease inhibitor ITMN-191 was included at a concentration >100×EC50 as a positive control. 72 hours later, cells were lysed and Renilla luciferase activity quantified as recommended by the manufacturer (Promega-Madison, Wis.). Non-linear regression was performed to calculate EC50 values.

[2] = test system: stable HCV 1a RLuc replicon cells (genotype 1a H77 replicon); test: HCV genotype 1a RLuc replicon reporter assay; assay type: cell-based; conditions: Hepatitis C virus; stable genotype 1a H77 RLuc replicon cells, 72 hours
Procedure: as §1

[3] = test system: stable HCV 2a JFH-1 Rluc replicon cells (L31 present in NS5A); test: HCV genotype 2a JFH-1 RLuc replicon reporter assay; assay type: cell-based; conditions: Hepatitis C virus, 72 h, read-out: 2a JFH (nM)
Procedure: as §1

[4] = test system: NS5A chimeric genotype 2a JFH-1 replicon with genotype 2a J6 strain NS5A gene (M31); test: HCV genotype 2a J6 NS5A chimeric replicon assay, transient (t); assay type: cell-based; conditions: Hepatitis C virus, 72 h, read-out: 2a J6 (t) (nM)
Procedure: as §1

[5] = test system: NS5A chimeric genotype 2a JFH-1 replicon with genotype 2b MD2b-1 strain NS5A gene (M31); test: HCV genotype 2b NS5A chimeric replicon assay, stable (s); assay type: cell-based; conditions: Hepatitis C virus, 72 h, read-out: 2b (s) (nM)
Procedure: as §1

[6] = test system: NS5A chimeric genotype 1b Con1 replicon with genotype 3a S52 strain NS5A gene; test: HCV genotype 3a NS5A chimeric replicon assay; assay type: cell-based; conditions: Hepatitis C virus, 72 h, read-out: 3a (nM)
Procedure: as §1

[7] = test system: NS5A chimeric genotype 1b Con1 replicon with genotype 4a ED43 strain NS5A gene; test: HCV genotype 4a NS5A chimeric replicon assay; assay type: cell-based; conditions: Hepatitis C virus, 72 h, read-out: 4a (s) (nM)
Procedure: as §1, with “[…],” for “were transiently transfected (t) into Huh-Lunet cells,”

[8] = test system: Y93H in genotype 1a NS5A replicon; test: Resistance mutant replicon assay, genotype 1a NS5A Y93H; assay type: cell-based, HCV; conditions: Hepatitis C virus, read-out: 1a Y93H (nM)
Procedure: as §1
(§2) To determine the antiviral potency (EC50) against resistance mutants, resistance mutations, including M28T, Q30R, Q30H, Q30E, L31M, Y93C, Y93H, and Y93N in genotype 1a NS5A, Y93H and L31V/Y93H in genotype 1b NS5A, and Y93H for in genotype 3a NS5A, were introduced individually into either 1a Pi-Rluc or 1b Pi-Rluc replicons by site directed mutagenesis. Replicon RNA of each resistant mutant was transiently transfected into Huh-7-derived cured-51 cells and antiviral potency was determined on these transfected cells as described above.

[9] = test system: Y93N in genotype 1a NS5A replicon; test: Resistance mutant replicon assay, genotype 1a NS5A Y93N; assay type: cell-based, HCV; conditions: Hepatitis C virus, read-out: 1a Y93N (nM)
Procedure: as §1, §2

[10] = test system: Y93H in genotype 3a NS5A replicon; test: Resistance mutant replicon assay, genotype 3a NS5A Y93H; assay type: cell-based, HCV; conditions: Hepatitis C virus, read-out: 3a Y93H (nM)
Procedure: as §1, §2

SMILES	EC50 [1]	EC50 [2]	EC50 [3]	EC50 [4]	EC50 [5]	EC50 [6]	EC50 [7]	EC50 [8]	EC50 [9]	EC50 [10]
COC(=O)N[C@H](C(=O)N1[C@H](c2nc3ccc4cc5c(cc4c3[nH]2)OCc2cc(-c3cnc([C@@H]4CC[C@H](C)N4C(=O)[C@@H](NC(=O)OC)C4C[C@@H](C)O[C@H](C)C4)[nH]3)ccc2-5)C[C@@H]2CCC[C@@H]21)C(C)C (stereo partly drawn) [Example BI, methyl{(2S)-1-[(2S,3aS,6aS)-2-(9-{2-[(2S,5S)-1-{(2S)-2-[(2R,6R)-2,6-dimethyltetrahydro-2H-pyran-4-yl]-2-[(methoxycarbonyl)amino]acetyl}-5-methylpyrrolidin-2-yl]-1H-imidazol-5-yl}-1,11-dihydroisochromeno[4′,3′:6,7]naphtho[1,2-d]imidazol-2-yl)hexahydrocyclopenta[b]pyrrol-1(2H)-yl]-3-methyl-1-oxobutan-2-yl}carbamate]	0.024 nM	0.012 nM	0.011 nM	0.022 nM	0.033 nM	0.017 nM	0.011 nM	0.184 nM	0.466 nM	3.45 nM
COC(=O)N[C@H](C(=O)N1[C@@H](c2nc3ccc4cc5c(cc4c3[nH]2)OCc2cc(-c3cnc([C@@H]4C[C@H](C)[C@H](C)N4C(=O)[C@@H](NC(=O)OC)C4C[C@@H](C)O[C@H](C)C4)[nH]3)ccc2-5)C[C@@H](C)[C@H]1C)C1C[C@@H](C)O[C@H](C)C1 (stereo partly drawn) [Example BA, Methyl {(1S)-1-[(2R,6R)-2,6-dimethyltetrahydro-2H-pyran-4-yl]-2-[(2R,3R,5R)-5-(9-{2-[(2S,4S,5S)-1-{(2S)-2-[(2R,6R)-2,6-dimethyltetrahydro-2H-pyran-4-yl]-2-[(methoxycarbonyl)amino]acetyl}-4,5-dimethylpyrrolidin-2-yl]-1H-imidazol-5-yl}-1,11-dihydroisochromeno[4′,3′:6,7]naphtho[1,2-d]imidazol-2-yl)-2,3-dimethylpyrrolidin-1-yl]-2-oxoethyl}carbamate]	0.061 nM	0.169 nM	0.086 nM		0.202 nM	0.231 nM	0.108 nM	0.359 nM	0.496 nM	40.6 nM
COC(=O)N[C@H](C(=O)N1[C@@H](C)CC[C@H]1c1ncc(-c2ccc3c(c2)COc2cc4c(cc2-3)CCc2nc([C@@H]3CC[C@H](C)N3C(=O)[C@@H](NC(=O)OC)C3C[C@@H](C)O[C@H](C)C3)[nH]c2-4)[nH]1)C1C[C@@H](C)O[C@H](C)C1 (stereo partly drawn) [Example BF, methyl {(1S)-1-[(2R,6R)-2,6-dimethyltetrahydro-2H-pyran-4-yl]-2-[(2S,5S)-2-(9-{2-[(2S,5S)-1-{(2S)-2-[(2R,6R)-2,6-dimethyltetrahydro-2H-pyran-4-yl]-2-[(methoxycarbonyl)amino]acetyl}-5-methylpyrrolidin-2-yl]-1H-imidazol-5-yl}-1,4,5,11-tetrahydroisochromeno[4′,3′:6,7]naphtho[1,2-d]imidazol-2-yl)-5-methylpyrrolidin-1-yl]-2-oxoethyl}carbamate]	0.049 nM	0.048 nM	0.021 nM	0.035 nM	0.042 nM	0.065 nM	0.025 nM	0.035 nM	0.125 nM	0.365 nM
COC(=O)N[C@H](C(=O)N1[C@H](c2ncc(-c3ccc4c(c3)COc3cc5c(ccc6nc([C@@H]7C[C@H](C)[C@H](C)N7C(=O)[C@@H](NC(=O)OC)C7C[C@@H](C)O[C@H](C)C7)[nH]c65)cc3-4)[nH]2)C[C@H](C)[C@@H]1C)C1C[C@@H](C)O[C@H](C)C1 (stereo partly drawn) [Example AZ, Methyl {(1S)-1-[(2R,6R)-2,6-dimethyltetrahydro-2H-pyran-4-yl]-2-[(2S ,3S,5S)-5-(5-{2-[(2S,4S,5S)-1-{(2S)-2-[(2R,6R)-2,6-dimethyltetrahydro-2H-pyran-4-yl]-2-[(methoxycarbonyl)amino]acetyl}-4,5-dimethylpyrrolidin-2-yl]-1,11-dihydroisochromeno[4′,3′:6,7]naphtho[1,2-d]imidazol-9-yl}-1H-imidazol-2-yl)-2,3-dimethylpyrrolidin-1-yl]-2-oxoethyl}carbamate]	0.031 nM	0.021 nM	0.01 nM		0.024 nM	0.025 nM	0.013 nM	0.025 nM	0.059 nM	4.52 nM
COC(=O)N[C@H](C(=O)N1[C@@H](C)CC[C@H]1c1ncc(-c2ccc3c(c2)COc2cc4c(ccc5nc([C@@H]6C[C@@H]7CCC[C@@H]7N6C(=O)[C@@H](NC(=O)OC)C6C[C@@H](C)O[C@H](C)C6)[nH]c54)cc2-3)[nH]1)C(C)C (stereo partly drawn) [Example AX, methyl {(2S)-1-[(2S,5S)-2-(5-{2-[(2S,3aS,6aS)-1-{(2S)-2-[(2R,6R)-2,6-dimethyltetrahydro-2H-pyran-4-yl]-2-[(methoxycarbonyl)amino]acetyl}octahydrocyclopenta[b]pyrrol-2-yl]-1,11-dihydroisochromeno[4′,3′:6,7]naphtho[1,2-d]imidazol-9-yl}-1H-imidazol-2-yl)-5-methylpyrrolidin-1-yl]-3-methyl-1-oxobutan-2-yl}carbamate]	0.022 nM	0.017 nM	0.012 nM	0.046 nM	0.027 nM	0.015 nM	0.01 nM	0.48 nM	0.885 nM	4.97 nM
